Legend:
gastric acid secretion = assay: Inhibition of gastric acid secretion in Shay rats (pylorus ligation); type: in vivo, male Wistar rats; settings: Rattus norvegicus, 2 h, intraduodenal, two hours after pylorus ligation; for inhibition in vivo at 40 mg/kg: i.d., read-out: Percentage inhibition of gastric acid secretion
Description: Method of Shay [Shay, H.; Komarov, S. A.; Feis, S. S.; Merange, D.; Grvenstein, M.; Siplet, H.; Gastroenterology, 5, 43 (1945)--Visscher, F. E.; Seay, P. H.; Taxelaar, A. P.; Veldkamp, W.; Vander Brook, M. J.; J. Pharmac. Exp. Ther., 110, 188 (1954)--"Animal Experiments in Pharmacological Analysis", F. R. Domer; C. C. Thomas Pub., Springfield, Ill., USA, 1970, p. 140].
In this test, male Wistar rats weighing 200 to 250 grams are used, the animals being maintained fasted from the day preceding that of the trail, with access to water ad libitum. A minimum of 4 animals is used in each batch.
The rats are anesthetized with ethyl ether, laporotomy is performed and the pylorus is ligated, and the abdominal incision is then sutured. The administration of the products, with the vehicle for the control batch, is performed intraduodenally (i.d.) before the abdominal incision is sutured. The dose administered for the first trail is 40 mg/kg, and the fifty percent effectove dose (ED50) i.d. is also determined in a second trial. The vehicle used is 5% w/v gum arabic in double-distilled water.
Two hours after ligation of the pyrolus, the rats are sacrificed by prolonged anesthesia with ethyl ether, and the volume of the gastric juice is measured and the total acidity determined by means of a pH meter equipped with an automatic burette. For each product and for each dose tested, the percentage inhibition of gastric acid secretion is determined relative to the control batch.

[1] = Acute toxicity in mice (oral LD50, Litchfield and Wilcoxon); settings: mouse, in vivo, suspended in 5% gum arabic
Procedure: Method of Litchfield and wilcoxon [Litchfield, J. T. and Wilcoxon, E. J., H. Pharmacol. Exp. Therap., 96, 19-113 (1949)].
The product is administered orally, suspended in 5% gum arabic in double-distilled water. The volume administered is 10 ml/kg. The fifty percent lethal dose (LD50) is calculated according to the method cited.

Row | SMILES | ED50 (gastric acid secretion) [mg/kg] | inhibition in vivo at 40 mg/kg (gastric acid secretion) [%] | LD50 ([1]; female mice) [mg/kg] | LD50 ([1]; male mice) [mg/kg]
1 | c1cnc(SCc2nc3ccccc3[nH]2)nc1 [Example 1, 2-(2-benzimidazolylmethylthio)pyrimidine] | 13 | 98 | 2700 | 3200
2 | Cc1cc(C)nc(SCc2nc3ccccc3[nH]2)n1 [Example 3] | 16 | 88 | > 3200 | > 3200
3 | O=[N+]([O-])c1ccc(SCc2nc3ccccc3[nH]2)nc1 [Example 4] | 21 | 74 | – | –
4 | Cc1cc2nc(CSc3ccccn3)[nH]c2cc1C [Example 6, 5,6-dimethyl-2-(2-pyridylthiomethyl)benzimidazole] | 19 | 92 | – | –
5 | [O-][n+]1ccccc1SCc1nc2ccccc2[nH]1 [Example 7] | 19 | 95 | – | –
6 | O=C(c1ccccc1)c1ccc2nc(CSc3ccccn3)[nH]c2c1 [Example 10, 5-benzoyl-2-(2-pyridylthiomethyl)benzimidazole] | 14 | 93 | – | –
7 | O=C(c1ccccc1)c1ccc2nc(C[S+]([O-])c3ccccn3)[nH]c2c1 (centres unmarked) [Example 27, 5-benzoyl-2-(2-pyridylsulfinylmethyl)benzimidazole] | 7 | 95 | 3200 | 3200
8 | [O-][S+](Cc1nc2ccccc2[nH]1)c1ccccn1 (centres unmarked) [Example 28, 2-(2-pyridylsulfinylmethyl)benzimidazole] | 8 | 90 | 3200 | 3200
9 | O=[N+]([O-])c1ccc([S+]([O-])Cc2nc3ccccc3[nH]2)nc1 (centres unmarked) [Example 29] | 4 | 90 | 2400 | 2400
10 | Cc1cc2nc(C[S+]([O-])c3ccccn3)[nH]c2cc1C (centres unmarked) [Example 31] | 15 | 96 | > 6400 | > 6400
11 | [O-][S+](Cc1nc2cc(Cl)ccc2[nH]1)c1ccccn1 (centres unmarked) [Example 32] | 17 | 92 | – | –
12 | Cc1cnc([S+]([O-])Cc2nc3cc(C(=O)c4ccccc4)ccc3[nH]2)c(C)c1 (centres unmarked) [Example 41] | 10 | 80 | – | –
13 | Cc1ccnc([S+]([O-])Cc2nc3cc(C(=O)c4ccccc4)ccc3[nH]2)c1 (centres unmarked) [Example 44] | 10 | 66 | – | –
14 | O=S(=O)(Cc1nc2ccc(Cl)cc2[nH]1)c1ccccn1 [Example 54, 5-chloro-2-(2-pyridylsulfonylmethyl)benzimidazole] | 24 | 70 | – | –
15 | Cn1c(C[S+]([O-])c2ccccn2)nc2cc(C(=O)c3ccccc3)ccc21 (centres unmarked) [Example 60, 5-benzoyl-1-methyl-2-(2-pyridylsulfinylmethyl)benzimidazole] | 21 | 75 | – | –
16 | CCOC(=O)n1c(C[S+]([O-])c2ccccn2)nc2ccc(C(=O)c3ccccc3)cc21 (centres unmarked) [Example 63, 6-benzoyl-1-carboxyethyl-2-(2-pyridylsulfinylmethyl)benzimidazole] | 16 | 81 | – | –
